Data set [1] has as its target T1, ADAM10 (Homo sapiens, UniProt O14672).
T1 construct: purchased R&D Systems 936-AD
T1 sequence (O14672 214-748): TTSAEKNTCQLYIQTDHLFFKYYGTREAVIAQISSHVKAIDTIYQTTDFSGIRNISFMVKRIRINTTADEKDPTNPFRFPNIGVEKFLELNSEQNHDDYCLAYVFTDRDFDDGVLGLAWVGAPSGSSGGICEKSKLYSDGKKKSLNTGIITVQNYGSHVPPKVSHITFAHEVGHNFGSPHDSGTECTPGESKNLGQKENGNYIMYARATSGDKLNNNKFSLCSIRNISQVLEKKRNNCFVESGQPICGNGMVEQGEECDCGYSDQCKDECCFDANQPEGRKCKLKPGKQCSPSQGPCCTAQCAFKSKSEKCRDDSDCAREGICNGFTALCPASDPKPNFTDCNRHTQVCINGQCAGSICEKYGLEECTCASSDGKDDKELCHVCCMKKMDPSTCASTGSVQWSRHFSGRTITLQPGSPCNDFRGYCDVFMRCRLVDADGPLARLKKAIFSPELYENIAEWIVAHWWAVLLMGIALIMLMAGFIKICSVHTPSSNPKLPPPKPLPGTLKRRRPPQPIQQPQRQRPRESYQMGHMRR
Description: ADAM10 glycosylated substrate uHTS/HTS assay. Format: biochemical. Here is the method: To enable uHTS both ADAM10 and ADAM17 glycosylated substrate[13] (Fig. 1A) assays were miniaturized to 1536 well plate format. The workflow of the assays in 384 well plate format was recaptured in 1536 well plate format and assay volume was scaled down to 5 µL.
Both assays followed the same general protocol. […] Reactions were incubated at RT for 2 h, after which the fluorescence was measured using Perkin Elmer Viewlux multimode microplate imager (λexcitation = 360 nm, λemission = 460 nm). Final concentration of test compounds in assays was 7.0 µM.
(§1) The miniaturized 1536-well plate format ADAM10 and ADAM17 assays were used to screen a collection of ≈370,000 compounds (MLSMR library, provided by the NIH) on the automated Kalypsys/GNF platform at the Scripps Research Institute Molecular Screening Center (SRIMSC, Jupiter, FL. More details at http://hts.florida.scripps.edu/). […] Both uHTS campaigns were run separately but in a similar manner. Briefly, the first step was the primary screen of all MLSMR’s test compounds as singlicate against the ADAM10 or ADAM17 target at a final concentration of 7.0 μM. Next, compounds selected as primary hits were cherry-picked and retested in triplicate against the primary screen target and its anti-target (ADAM17 for the ADAM10 screening effort, and vice-versa) at the same final concentration of 7.0 μM. […] All data generated during this effort were uploaded to the SRIMSC’s institutional screening database (Assay Explorer, Symyx). Sample to background (S/B) ratios, as well as Z and Z′ values were calculated on a per-plate basis as described before. Curve fitting and resulting IC50 determinations were performed as previously reported.

In data set [2] the test system is HEK293 cells. Description: Cell toxicity study (CellTiter-Glo), HEK293. Format: cell-based. On the procedure: Test compounds were solubilized in 100% DMSO and added to polypropylene 384 well plates (Greiner cat# 781280). 1,250 of BT474 or HEK293 cells were plated in 384-well plates in 8 µL of serum-free media (HybriCare for BT474, EMEM for HEK293). Test compounds and pharmacological assay control (lapatinib) were prepared as 10-point, 1:3 serial dilutions starting at 10 mM, then added to the cells using the pin tool mounted on Biomek NX^P. Plates were incubated for 72 h at 37 °C, 5% CO2 and 95% RH. After incubation, 8 µL of CellTiter-Glo® (Promega cat# G7570) was added to each well, and incubated for 15 min at room temperature. Luminescence was recorded using a Biotek Synergy H4 multimode microplate reader. Viability was expressed as a percentage relative to wells containing media only (0%) and wells containing cells treated with DMSO only (100%). Three parameters were calculated on a per-plate basis: (a) the signal-to-background ratio (S/B); (b) the coefficient for variation [CV; CV = (standard deviation/mean) × 100)] for all compound test wells; and (c) the Z′-factor. IC50 values were calculated by fitting normalized data to sigmoidal log vs. response equation utilizing non-linear regression analysis from GraphPad Prizm 6.
A general note: ATP-based viability assays read luminescence as a measure of living cells.

Data set [3] has as its target T2, ADAM17 (Homo sapiens, UniProt P78536).
T2 construct: purchased R&D Systems 930-ADB
Description: ADAM17 glycosylated substrate uHTS/HTS assay. The data set is classed as biochemical. To be noted: original uHTS dose response, 10-point 1:3 dilutions starting at 70 µM. On the procedure: Both assays followed the same general protocol. […] After 30 min incubation at RT, the reactions were started by addition of 2.5 µL of 2x solutions of glycosylated substrate (20 µM). Reactions were incubated at RT for 2 h, after which the fluorescence was measured using Perkin Elmer Viewlux multimode microplate imager (λexcitation = 360 nm, λemission = 460 nm). Final concentration of test compounds in assays was 7.0 µM.
as §1

The subject of data set [4] is IL-8-induced migration of primary human neutrophils. Description: Neutrophil migration assay. Format: cell-based. Here is the method:
For PBMC or primary human neutrophil chemotaxis assays, transwells with 8 or 5 µm pores were filled with 100 µL of cell suspension (1 × 10^6 cells in 100 µL DMEM + 0.2% BSA). Lower wells were filled with stimulus solution (3 nM CCL2 or 10 µg/mL CXCL8 (IL8) in assay buffer (RPMI + 0.2% BSA). After incubation of PBMCs for 2 h or neutrophils for 45 min, migrated cells were quantified in the lower well. For inhibitor studies, cells were pre-incubated in migration medium for 30 min and subsequently subjected to the migration experiment. Migrated neutrophils or PBMCs were quantified by measurement of endogenous glucuronidase activity as described.

A value given as a limit tells only on which side of the number the result lay.

T2 sequence (P78536 215-824): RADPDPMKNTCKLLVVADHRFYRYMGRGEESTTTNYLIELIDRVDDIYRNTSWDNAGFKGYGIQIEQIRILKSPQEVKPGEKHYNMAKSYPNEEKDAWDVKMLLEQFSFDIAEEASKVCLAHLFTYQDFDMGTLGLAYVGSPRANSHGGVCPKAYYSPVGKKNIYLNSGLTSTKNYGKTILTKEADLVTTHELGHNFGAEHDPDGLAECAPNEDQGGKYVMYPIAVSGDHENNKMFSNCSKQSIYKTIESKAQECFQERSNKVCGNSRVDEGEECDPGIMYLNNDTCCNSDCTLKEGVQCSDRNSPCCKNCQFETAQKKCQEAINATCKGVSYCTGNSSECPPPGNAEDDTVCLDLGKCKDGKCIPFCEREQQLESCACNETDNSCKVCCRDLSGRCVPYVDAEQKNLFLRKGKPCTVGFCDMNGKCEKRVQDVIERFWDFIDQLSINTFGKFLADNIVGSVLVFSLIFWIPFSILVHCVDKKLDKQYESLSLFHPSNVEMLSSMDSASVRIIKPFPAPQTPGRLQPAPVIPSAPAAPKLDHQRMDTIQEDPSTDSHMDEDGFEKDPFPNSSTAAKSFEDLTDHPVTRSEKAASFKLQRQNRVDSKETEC

`COc1cccc(C(=O)NNC(=O)C(=O)Nc2ccc(C)c(Cl)c2)c1` [CID 3117694]: the “difference in potency, 0.5 hour pre-incubation versus no incubation” value in data set [1] is given as “approximately 40 fold”. Moreover, the half-maximal inhibitory concentration (IC50) – broadly, the midpoint of a concentration-inhibition curve – was 700 ± 500 nM in data set [1] (1 h pre-incubation); 400 ± 300 nM in data set [1] (4 h pre-incubation); 40000 ± 5000 nM in data set [1] (no pre-incubation with ADAM10); 6500 nM in data set [1] (original uHTS dose response, 10-point 1:3 dilutions starting at 70 µM); 1100 nM in data set [1] (reordered powder, HTS assay, glycosylated substrate, 0.5 h pre-incubation); > 70000 nM in data set [3]. Besides, the “difference in in vitro potency for ADAM10, GI 254023X versus CID 3117694” value in data set [1] (IC50 5.3 nM versus 1.1 µM) is reported as ~200 fold. Besides, in data set [1] (no pre-incubation with ADAM10), the inhibition profile result is listed as “partial inhibition profile”. For the same molecule, the “effect on HEK293 cell viability” value in data set [2] (100 µM) was “moderate effect”. For the same molecule, the “effect on viability of HEK293 cells” value in data set [2] (72 h) was “did not affect viability”. Moreover, in data set [4], the “inhibition of neutrophil migration” value was “inhibition of migration to random migration levels”.

These data come from article PMC5431342, “Discovery of an enzyme and substrate selective inhibitor of ADAM10 using an exosite-binding glycosylated substrate” (Scientific Reports, 2016).
